For five compounds, EC50 results are on record in patent publication US10562893B2, “Benzimidazoles derivatives as Tec kinases family inhibitors” (GB005, Inc., priority 2015, dated 2020).

Molecules are shown by their SMILES. A value given as a limit tells only on which side of the number the result lay.

The target in one assay is RLK/TXK (Homo sapiens (Human), UniProt P42681). Nature of the assay: RLK/TXK kinase inhibition assay. The format is biochemical. To be noted: micro-fluidic detection, 3 hours at 25° C. On the procedure: (§1) The in vitro kinase assays were performed at Nanosyn utilizing micro-fluidic detection technology. The test compounds were serially pre-diluted in DMSO and added, by the acoustic dispensing (Labcyte® 550), directly to 384well assay plates into 10 uL of a buffer with enzyme comprising: 100 mM HEPES, pH7.5, 5 mM MgCl2, 0.1% bovine serum albumin, 1 mM DTT, 0.01% Triton X-100 and the enzyme. Final DMSO concentration was maintained at 1% in all samples, including the controls. The reactions were initiated by addition of ATP (to the specified concentration) and the fluorescently labeled peptide substrate to a final concentration of 1 uM, and incubated for 3 hours at 25° C. Following incubation, the reactions were quenched by addition of 40 μL of termination buffer (100 mM HEPES, pH7.5, 0.01% Triton X-100, 50 mM EDTA). Terminated plates were analyzed using Caliper LabChip® 3000 microfluidic electrophoresis instrument (Caliper Life Sciences/Perkin Elmer). The enzymatic modification of the peptide substrate (phosphorylation) results in a change of net charge enabling electrophoretic separation of product from substrate. As substrate and product are separated by electrophoresis, two peaks of fluorescence are observed. Change in the relative fluorescence intensity of the substrate and product peaks was the parameter measured, reflecting enzyme activity. In the presence of inhibitor, the ratio between product and substrate is altered: signal of the product decreases, while the signal of the substrate increases. Activity in each test sample was determined as the product to sum ratio (PSR): P/(S+P), where P is the peak height of the product and S is the peak height of the […]. For each compound, enzyme activity was measured at 12 concentrations spaced by 3× dilution intervals. Negative control samples (0%-inhibition in the absence of inhibitor, DMSO only) and positive control samples (100%-inhibition, in the absence of enzyme or in the presence of control inhibitor) were assembled in replicates of four and were used to calculate %-inhibition values in the presence of compounds. Percent inhibition (Pinh) was determined using the following equation: Pinh=(PSR0%−PSRinh)/(PSR0%−PSR100%)*100, where PSRinh is the product sum ratio in the presence of inhibitor, PSR0% is the product sum ratio in the absence of inhibitor and PSR100% is the product sum ratio in 100%-inhibition control samples. To determine IC50 values, the inhibition curves (Pinh versus inhibitor concentration) were fitted by 4 parameter sigmoid dose-response model using XLfit software (IDBS).
RLK/TXK, sequence (P42681 whole entry): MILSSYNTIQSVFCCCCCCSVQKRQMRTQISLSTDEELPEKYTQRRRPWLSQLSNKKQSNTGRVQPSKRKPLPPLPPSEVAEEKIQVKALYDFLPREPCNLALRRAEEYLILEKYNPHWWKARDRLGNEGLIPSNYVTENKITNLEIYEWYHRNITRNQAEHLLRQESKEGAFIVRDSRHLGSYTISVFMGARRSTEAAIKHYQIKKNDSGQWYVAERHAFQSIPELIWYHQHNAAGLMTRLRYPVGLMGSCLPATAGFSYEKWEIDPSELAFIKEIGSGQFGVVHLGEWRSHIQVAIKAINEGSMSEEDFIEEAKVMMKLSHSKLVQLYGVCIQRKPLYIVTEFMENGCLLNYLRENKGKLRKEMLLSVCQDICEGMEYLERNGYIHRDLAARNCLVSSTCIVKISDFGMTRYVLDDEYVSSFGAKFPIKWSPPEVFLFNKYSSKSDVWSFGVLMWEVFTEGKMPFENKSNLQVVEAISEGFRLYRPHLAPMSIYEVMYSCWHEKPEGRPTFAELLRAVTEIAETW

For another assay, the target named is ITK (Homo sapiens (Human), UniProt Q08881). The assay can be described thus: ITK kinase inhibition assay. It is filed as biochemical. The following applies: micro-fluidic detection, 3 hours at 25° C. The method, then:
as §1, with “384 well” for “384well”, “(PSR):P/(S+P),” for “(PSR): P/(S+P),”

As a reminder, the EC50 is the concentration that produces a half-maximal response. Low values mean higher potency in that assay, high ones lower potency in that assay.

ITK, sequence (Q08881 whole entry): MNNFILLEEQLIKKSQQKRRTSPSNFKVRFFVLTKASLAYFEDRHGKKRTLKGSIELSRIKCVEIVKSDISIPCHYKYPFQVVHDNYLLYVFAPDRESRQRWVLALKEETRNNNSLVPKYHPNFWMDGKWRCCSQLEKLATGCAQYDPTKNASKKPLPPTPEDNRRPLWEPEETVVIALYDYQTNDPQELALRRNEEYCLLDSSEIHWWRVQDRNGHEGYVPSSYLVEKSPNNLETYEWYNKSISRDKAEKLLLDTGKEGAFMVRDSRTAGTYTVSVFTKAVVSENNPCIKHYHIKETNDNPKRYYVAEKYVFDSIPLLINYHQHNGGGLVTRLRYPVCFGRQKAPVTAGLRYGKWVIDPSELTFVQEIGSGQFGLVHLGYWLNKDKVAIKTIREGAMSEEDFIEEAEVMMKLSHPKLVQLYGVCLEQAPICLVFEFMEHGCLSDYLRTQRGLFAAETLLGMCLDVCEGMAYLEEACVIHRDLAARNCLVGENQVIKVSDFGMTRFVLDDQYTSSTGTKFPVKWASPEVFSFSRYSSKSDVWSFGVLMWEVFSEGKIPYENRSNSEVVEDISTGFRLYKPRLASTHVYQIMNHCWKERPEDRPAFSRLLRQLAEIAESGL

Turning to `C=CC(=O)Nc1cccc(-n2c(NC(=O)c3ccc(C(F)F)s3)nc3cc(CN[C@@H](C)C(C)(C)C)ccc32)c1` [Compound 2], the concentration for a half-maximal effect (EC50) at RLK/TXK and on ITK was less than 10 nM in each case.
On to `C=CC(=O)Nc1cccc(-n2c(NC(=O)c3cccc(C#N)c3)nc3cc(CN[C@@H](C)C(C)(C)C)ccc32)c1` [Compound 9], for which the EC50 on RLK/TXK and on ITK was less than 10 nM throughout.
Regarding `C=CC(=O)Nc1cccc(-n2c(NC(=O)c3ccc(-c4cnco4)s3)nc3cc(CN[C@@H](C)C(C)(C)C)ccc32)c1` [Compound 25], the EC50 at RLK/TXK and at ITK was less than 10 nM each time.
Take `C=CC(=O)Nc1cccc(-n2c(NC(=O)c3ccnn3C)nc3cc(CN[C@@H](C)C(C)(C)C)ccc32)c1` [Compound 28]: the 50% effective concentration (EC50) at RLK/TXK and on ITK was less than 10 nM in each case.
In the case of `C=CC(=O)Nc1cccc(-n2c(NC(=O)c3ccno3)nc3cc(CN[C@@H](C)C(C)(C)C)ccc32)c1` [Compound 38], the EC50 on RLK/TXK and at ITK was less than 10 nM in each case.
